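The compound was tested at five concentrations on cells cultured in 96-well plates, with a 48-hour exposure period. GI50: concentration for 50% inhibition of growth.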 The source made the active and inactive calls. Cut-off read from the data, not from the text of the source: active = GI50 up to about 1.1 µM and inactive = higher.
How the values were obtained:
Experiment in all cases: DTP human tumour cell line panel, 48 h
SK-MEL-2 = system: SK-MEL-2
HL-60 = system: HL-60
ACHN = system: ACHN
786-0 = system: 786-0
UACC-257 = system: UACC-257
K562 = system: K562
HCT-15 = system: HCT-15
OVCAR-4 = system: OVCAR-4
SF-295 = system: SF-295
U-251 = system: U-251
SNB-75 = system: SNB-75
SF-539 = system: SF-539
SK-MEL-5 = system: SK-MEL-5
SK-MEL-28 = system: SK-MEL-28
HCT-116 = system: HCT-116
HOP-92 = system: HOP-92
IGROV-1 = system: IGROV-1
HCC 2998 = system: HCC 2998

SMILES	GI50 (SK-MEL-2)	GI50 (HL-60)	GI50 (ACHN)	GI50 (786-0)	GI50 (UACC-257)	GI50 (K562)	GI50 (HCT-15)	GI50 (OVCAR-4)	GI50 (SF-295)	GI50 (U-251)	GI50 (SNB-75)	GI50 (SF-539)	GI50 (SK-MEL-5)	GI50 (SK-MEL-28)	GI50 (HCT-116)	GI50 (HOP-92)	GI50 (IGROV-1)	GI50 (HCC 2998)
c1cnn(CN(Cn2cccn2)Cn2cccn2)c1	> 100 µM (inactive)	> 100 µM (inactive)	> 100 µM (inactive)	> 100 µM (inactive)	> 100 µM (inactive)	> 100 µM (inactive)	> 100 µM	> 100 µM (inactive)	> 100 µM (inactive)	> 100 µM (inactive)	> 100 µM (inactive)	> 100 µM (inactive)	> 100 µM (inactive)	> 100 µM (inactive)	> 100 µM (inactive)	> 100 µM (inactive)		
C/C(CCn1[nH]c(=O)ccc1=O)=N\N=C(N)N	> 100 µM (inactive)	> 100 µM (inactive)	> 100 µM (inactive)	> 100 µM (inactive)	> 100 µM (inactive)	> 100 µM (inactive)	> 100 µM	> 100 µM (inactive)	> 100 µM (inactive)		> 100 µM (inactive)	> 100 µM (inactive)	> 100 µM (inactive)	> 100 µM (inactive)	> 100 µM (inactive)	> 100 µM (inactive)	> 100 µM (inactive)	> 100 µM (inactive)
CCNC(=O)c1ccc(C)c(/N=N/N(C)C)c1	> 100 µM (inactive)		> 100 µM (inactive)	> 100 µM (inactive)	> 100 µM (inactive)		> 100 µM	> 100 µM (inactive)	> 100 µM (inactive)	> 100 µM (inactive)		> 100 µM (inactive)	> 100 µM (inactive)	> 100 µM (inactive)	> 100 µM (inactive)	> 100 µM (inactive)	> 100 µM (inactive)	> 100 µM (inactive)
CC1=C(C(=O)Nc2ccccc2C)C(c2ccc(N(C)C)cc2)C(C(=O)Nc2ccccc2C)=C(C)N1	36.2 µM (inactive)	19 µM (inactive)	67.6 µM (inactive)	72.3 µM (inactive)	71.6 µM (inactive)	26.2 µM (inactive)	67.9 µM		> 100 µM (inactive)	> 100 µM (inactive)		> 100 µM (inactive)	38.5 µM (inactive)	74.8 µM (inactive)	55.3 µM (inactive)		> 100 µM (inactive)	34.5 µM (inactive)
O=[N+]([O-])c1ccc(C2=NN(c3ccccc3)C[N+](c3ccc(Br)cc3)=N2)cc1	> 100 µM (inactive)		> 100 µM (inactive)	> 100 µM (inactive)	> 100 µM (inactive)	70.3 µM (inactive)	> 100 µM	> 100 µM (inactive)	75.5 µM (inactive)	71.3 µM (inactive)	> 100 µM (inactive)	46 µM (inactive)	> 100 µM (inactive)	> 100 µM (inactive)	89.5 µM (inactive)	78.7 µM (inactive)	> 100 µM (inactive)	41.6 µM (inactive)
O=c1oc2ccccc2c(O)c1C(C/C(CCN1CCCC1)=N\Nc1ccccc1)c1ccccc1 (stereo unspecified)	51.3 µM (inactive)	24.2 µM (inactive)	54.8 µM (inactive)	> 100 µM (inactive)	77.8 µM (inactive)	46.2 µM (inactive)	52.2 µM	97.7 µM (inactive)	55.7 µM (inactive)	78.2 µM (inactive)	> 100 µM (inactive)	88.9 µM (inactive)	46.3 µM (inactive)		82.6 µM (inactive)	16.3 µM (inactive)	> 100 µM (inactive)	23.6 µM (inactive)
O=C(c1ccccc1)C(C(=O)c1ccccc1)C1(O)C(=O)c2ccccc2C1=O	6.17 µM (inactive)	16.7 µM (inactive)	31.9 µM (inactive)	26.9 µM (inactive)	38.4 µM (inactive)	15.8 µM (inactive)	44.2 µM		28.2 µM (inactive)	21 µM (inactive)	24.8 µM (inactive)	32.1 µM (inactive)	> 10 µM (inactive)	3.6 µM (inactive)	> 10 µM (inactive)	25.8 µM (inactive)	53.3 µM (inactive)	39.4 µM (inactive)
CC(C)(C)C1CC[C@H]2c3c([nH]c4ccccc34)[C@H]3C(=O)N(c4ccc(F)cc4)C(=O)[C@H]3[C@H]2C1 (stereo partly specified)	15.8 µM (inactive)		14.1 µM (inactive)	11.3 µM (inactive)	22.6 µM (inactive)	20.7 µM (inactive)	20.7 µM	11.2 µM (inactive)	14.8 µM (inactive)	8.75 µM (inactive)	10.5 µM (inactive)	18.9 µM (inactive)	18.7 µM (inactive)	23.6 µM (inactive)	11.6 µM (inactive)	28.1 µM (inactive)	17 µM (inactive)	13.6 µM (inactive)
Nc1nc(N)c(-c2ccccc2)c(C(=O)Nc2ccccc2)n1	> 100 µM (inactive)		> 100 µM (inactive)	> 100 µM (inactive)	> 100 µM (inactive)	> 100 µM (inactive)	> 100 µM	> 100 µM (inactive)		> 100 µM (inactive)	> 100 µM (inactive)	> 100 µM (inactive)	> 100 µM (inactive)	> 100 µM (inactive)	> 100 µM (inactive)	> 100 µM (inactive)	> 100 µM (inactive)	
